# Patent US11912789B2, “Peptide activating agent” (Interk Peptide Therapeutics Limited, priority 2018, dated 2024)
# Test system: PBMCs
# Test: Foxp3+ Treg proportion in anti-CD3 stimulated PBMCs
# Format: cell-based, human
# Conditions: in the absence of RSKAKNPLYR-(2Adod)4-NH2; FIG. 9
# Protocol: Shown is the percentage inhibition of Regulatory T cells (Tregs:Foxp3+) within human PBMCs in the presence of RSKAKNPLYR-(2Adod)4-NH2 (cells gated for CD4+/CD25+/CD127101. Anti-CD3 stimulated PBMCs were cultured together with RSKAKNPLYR-(2Adod)4-NH2 over a 5-concentration range plus vehicle control (0-1.25 μM) for 48 hrs. Treg populations were determined by measuring Foxp3+ proportion of cells within CD4+CD25+CD127^low population. Data were normalised due to donor variation. Data presented indicates the fold change in Foxp3+ Treg proportions in response to peptide treatment, +/−SEM, n=4. Data were analysed by RM two-way ANOVA with Dunnett's post-test comparing each peptide concentration with […], **p<0.01, ****p<0.0001. Dotted line indicates vehicle control for normalisation.
# Anti-CD3 stimulated PBMCs were cultured together with RSKAKNPLYR-(2Adod)4-NH2, over a 5-concentration range plus vehicle control (0-1.25 μM) in combination with anti-PD-1 (Pembrolizumab) or isotype (hlgG4) for 48 hrs after which CD4+ and CD8+ T cells were assessed by flow cytometry. Treg populations were determined by measuring Foxp3+ proportion of cells within CD4+CD25+CD127^low populations. […] Data were analysed by RM two-way ANOVA with Sidak's post-test comparing peptide in combination with anti-PD-1 vs combination with hlgG4 at each dose, *p<0.05, **p<0.01. […]
substance,measurement,value
Pembrolizumab [anti-PD-1 antibodies],"proportion of Treg cells within PBMCs, anti-PD-1 versus isotype control",same proportion of Treg cells
